Results as given in patent publication US20230203059A1, “MACROCYCLIC JAK INHIBITOR AND USES THEREOF” (Biopolar Hongye (Guangdong) Pharmaceutical Co. Ltd., priority 2020, published 2023).

Experiments:
Assay type in all cases: biochemical
JAK3 = target: T1, JAK3 (Homo sapiens, UniProt P52333); assay: JAK kinase activity, homogeneous time-resolved fluorescence (JAK3 reaction system); conditions: ATP 2 μM, JAK3 protein 0.04 ng/μL; read-out: JAK 3 activity
T1 sequence (P52333 1-1124): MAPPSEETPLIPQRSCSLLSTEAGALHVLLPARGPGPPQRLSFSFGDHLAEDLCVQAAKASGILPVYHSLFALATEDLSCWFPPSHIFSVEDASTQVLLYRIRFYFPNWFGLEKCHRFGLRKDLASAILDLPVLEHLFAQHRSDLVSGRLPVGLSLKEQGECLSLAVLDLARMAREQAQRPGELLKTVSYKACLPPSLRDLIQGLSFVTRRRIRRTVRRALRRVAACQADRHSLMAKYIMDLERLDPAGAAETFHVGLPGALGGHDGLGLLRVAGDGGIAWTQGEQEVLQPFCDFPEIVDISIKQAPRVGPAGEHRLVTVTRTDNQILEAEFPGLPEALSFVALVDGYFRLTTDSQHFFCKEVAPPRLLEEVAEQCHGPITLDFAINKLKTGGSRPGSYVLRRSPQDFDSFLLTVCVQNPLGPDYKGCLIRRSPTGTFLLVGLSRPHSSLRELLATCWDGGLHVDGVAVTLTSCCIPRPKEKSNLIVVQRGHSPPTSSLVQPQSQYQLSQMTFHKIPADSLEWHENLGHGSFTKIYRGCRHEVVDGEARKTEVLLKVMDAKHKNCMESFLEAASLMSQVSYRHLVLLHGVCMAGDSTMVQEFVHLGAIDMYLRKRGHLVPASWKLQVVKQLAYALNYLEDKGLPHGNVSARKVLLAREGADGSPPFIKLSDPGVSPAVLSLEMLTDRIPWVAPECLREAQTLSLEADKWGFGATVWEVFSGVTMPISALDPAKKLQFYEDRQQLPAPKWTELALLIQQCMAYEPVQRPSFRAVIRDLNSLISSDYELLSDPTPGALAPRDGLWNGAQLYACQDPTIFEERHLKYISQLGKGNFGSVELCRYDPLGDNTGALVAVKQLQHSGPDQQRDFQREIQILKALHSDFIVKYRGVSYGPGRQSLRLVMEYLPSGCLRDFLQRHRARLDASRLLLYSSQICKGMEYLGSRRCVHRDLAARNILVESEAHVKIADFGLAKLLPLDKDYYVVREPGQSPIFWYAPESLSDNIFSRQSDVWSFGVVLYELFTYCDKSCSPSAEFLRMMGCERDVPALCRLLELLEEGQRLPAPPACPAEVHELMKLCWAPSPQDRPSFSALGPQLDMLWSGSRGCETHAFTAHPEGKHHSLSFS

TYK2 = TYK2 (Homo sapiens, UniProt P29597); assay: JAK kinase activity, homogeneous time-resolved fluorescence (TYK2 reaction system); conditions: ATP 2 μM, TYK2 protein 0.2 ng/μL; read-out: TYK 2 activity
Outline: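 Activity read as the 665 nm/615 nm ratio after adding EDTA-containing detection mix with anti-phospho-substrate antibody and XL-615. Beforehand, 0.2 ng/μL TYK2, 2 μM ATP, substrate and compound reacted 1 h in pH 7.0 Hepes buffer with MgCl2 and DTT. IC50 fitted with Hill-slope equation.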

JAK1 = JAK1 (Homo sapiens, UniProt P23458); assay: JAK kinase activity, homogeneous time-resolved fluorescence (JAK1 reaction system); conditions: ATP 2 μM, JAK1 protein 0.2 ng/μL; read-out: JAK 1 activity
Outline: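 HTRF assay: JAK1 (0.2 ng/μL) with 2 μM ATP and substrate in 50 mM Hepes pH 7.0, 5 mM MgCl2, 1 mM DTT, 1 h. Phospho-substrate antibody/XL-615 detection with EDTA; 665/615 nm ratio, excitation 320 nm. IC50 from Hill-type fit against no-enzyme and no-compound controls.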

JAK2 = JAK2 (Homo sapiens, UniProt O60674); assay: JAK kinase activity, homogeneous time-resolved fluorescence (JAK2 reaction system); conditions: ATP 2 μM, JAK2 protein 0.01 ng/μL
Outline: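 IC50 derived by Hill-equation fit of the 665/615 nm time-resolved fluorescence ratio after EDTA-containing detection mix with anti-phosphosubstrate antibody. Preceding 1 h reaction contained 2 μM ATP, 0.01 ng/μL JAK2, substrate, 50 mM Hepes pH 7.0, 5 mM MgCl2, 1 mM DTT.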

Sequence of TYK2 (P29597 whole entry): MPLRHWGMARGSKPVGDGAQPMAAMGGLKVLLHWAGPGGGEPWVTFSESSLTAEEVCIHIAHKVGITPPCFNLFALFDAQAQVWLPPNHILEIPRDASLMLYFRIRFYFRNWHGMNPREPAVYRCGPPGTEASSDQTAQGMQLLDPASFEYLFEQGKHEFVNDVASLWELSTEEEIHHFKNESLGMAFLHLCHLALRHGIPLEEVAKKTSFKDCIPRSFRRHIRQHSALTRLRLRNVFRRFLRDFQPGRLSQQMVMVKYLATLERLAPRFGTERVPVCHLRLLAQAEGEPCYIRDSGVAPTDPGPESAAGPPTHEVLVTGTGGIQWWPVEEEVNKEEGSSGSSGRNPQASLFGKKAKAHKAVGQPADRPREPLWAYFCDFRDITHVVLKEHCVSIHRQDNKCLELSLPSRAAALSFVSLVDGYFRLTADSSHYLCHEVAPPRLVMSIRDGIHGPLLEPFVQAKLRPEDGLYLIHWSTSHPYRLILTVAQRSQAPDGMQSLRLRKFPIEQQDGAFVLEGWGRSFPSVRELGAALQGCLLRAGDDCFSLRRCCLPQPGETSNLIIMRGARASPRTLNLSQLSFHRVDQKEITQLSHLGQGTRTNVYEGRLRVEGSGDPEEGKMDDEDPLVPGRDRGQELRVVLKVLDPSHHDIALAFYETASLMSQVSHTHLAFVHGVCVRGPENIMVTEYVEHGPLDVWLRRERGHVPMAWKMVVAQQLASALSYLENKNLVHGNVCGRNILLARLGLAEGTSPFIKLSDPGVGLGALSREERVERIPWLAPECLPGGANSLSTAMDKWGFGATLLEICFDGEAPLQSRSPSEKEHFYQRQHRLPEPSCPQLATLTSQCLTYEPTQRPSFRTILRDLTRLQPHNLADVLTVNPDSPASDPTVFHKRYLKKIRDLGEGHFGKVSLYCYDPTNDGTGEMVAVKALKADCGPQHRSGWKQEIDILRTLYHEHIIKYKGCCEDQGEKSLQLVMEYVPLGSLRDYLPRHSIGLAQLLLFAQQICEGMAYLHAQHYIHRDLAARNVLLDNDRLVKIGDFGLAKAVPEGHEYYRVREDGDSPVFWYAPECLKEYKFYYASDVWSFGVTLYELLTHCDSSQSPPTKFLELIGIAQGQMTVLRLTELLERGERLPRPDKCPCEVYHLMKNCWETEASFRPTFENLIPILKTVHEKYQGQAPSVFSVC
Sequence of JAK2 (O60674 whole entry): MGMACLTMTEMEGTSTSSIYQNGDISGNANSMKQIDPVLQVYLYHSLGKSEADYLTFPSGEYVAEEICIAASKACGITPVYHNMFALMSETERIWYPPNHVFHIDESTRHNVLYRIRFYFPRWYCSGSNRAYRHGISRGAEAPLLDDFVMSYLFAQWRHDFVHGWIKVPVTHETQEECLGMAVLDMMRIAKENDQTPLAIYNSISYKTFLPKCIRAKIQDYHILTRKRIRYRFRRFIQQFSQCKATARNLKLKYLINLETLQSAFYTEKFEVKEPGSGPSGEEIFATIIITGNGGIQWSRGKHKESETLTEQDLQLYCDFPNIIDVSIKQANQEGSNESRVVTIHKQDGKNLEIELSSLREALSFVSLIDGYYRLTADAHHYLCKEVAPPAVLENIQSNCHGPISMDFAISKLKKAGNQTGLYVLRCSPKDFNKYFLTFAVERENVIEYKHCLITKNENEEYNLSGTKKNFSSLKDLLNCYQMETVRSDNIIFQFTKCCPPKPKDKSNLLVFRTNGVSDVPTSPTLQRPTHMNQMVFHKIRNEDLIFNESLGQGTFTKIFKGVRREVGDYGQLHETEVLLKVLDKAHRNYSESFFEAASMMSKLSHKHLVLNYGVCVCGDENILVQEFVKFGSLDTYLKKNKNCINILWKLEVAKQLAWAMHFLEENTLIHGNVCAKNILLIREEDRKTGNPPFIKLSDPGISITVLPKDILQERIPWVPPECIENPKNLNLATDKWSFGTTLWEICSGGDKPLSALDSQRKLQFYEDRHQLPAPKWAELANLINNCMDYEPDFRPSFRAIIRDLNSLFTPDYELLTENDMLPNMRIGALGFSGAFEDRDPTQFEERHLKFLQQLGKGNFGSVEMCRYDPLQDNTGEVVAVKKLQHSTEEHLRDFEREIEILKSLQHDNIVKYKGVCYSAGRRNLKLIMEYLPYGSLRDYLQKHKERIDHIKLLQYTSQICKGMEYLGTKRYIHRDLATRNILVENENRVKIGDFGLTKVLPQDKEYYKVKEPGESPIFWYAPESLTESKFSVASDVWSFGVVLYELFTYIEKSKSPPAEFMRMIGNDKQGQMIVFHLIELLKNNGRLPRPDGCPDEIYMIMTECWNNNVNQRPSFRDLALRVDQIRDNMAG
Sequence of JAK1 (P23458 whole entry): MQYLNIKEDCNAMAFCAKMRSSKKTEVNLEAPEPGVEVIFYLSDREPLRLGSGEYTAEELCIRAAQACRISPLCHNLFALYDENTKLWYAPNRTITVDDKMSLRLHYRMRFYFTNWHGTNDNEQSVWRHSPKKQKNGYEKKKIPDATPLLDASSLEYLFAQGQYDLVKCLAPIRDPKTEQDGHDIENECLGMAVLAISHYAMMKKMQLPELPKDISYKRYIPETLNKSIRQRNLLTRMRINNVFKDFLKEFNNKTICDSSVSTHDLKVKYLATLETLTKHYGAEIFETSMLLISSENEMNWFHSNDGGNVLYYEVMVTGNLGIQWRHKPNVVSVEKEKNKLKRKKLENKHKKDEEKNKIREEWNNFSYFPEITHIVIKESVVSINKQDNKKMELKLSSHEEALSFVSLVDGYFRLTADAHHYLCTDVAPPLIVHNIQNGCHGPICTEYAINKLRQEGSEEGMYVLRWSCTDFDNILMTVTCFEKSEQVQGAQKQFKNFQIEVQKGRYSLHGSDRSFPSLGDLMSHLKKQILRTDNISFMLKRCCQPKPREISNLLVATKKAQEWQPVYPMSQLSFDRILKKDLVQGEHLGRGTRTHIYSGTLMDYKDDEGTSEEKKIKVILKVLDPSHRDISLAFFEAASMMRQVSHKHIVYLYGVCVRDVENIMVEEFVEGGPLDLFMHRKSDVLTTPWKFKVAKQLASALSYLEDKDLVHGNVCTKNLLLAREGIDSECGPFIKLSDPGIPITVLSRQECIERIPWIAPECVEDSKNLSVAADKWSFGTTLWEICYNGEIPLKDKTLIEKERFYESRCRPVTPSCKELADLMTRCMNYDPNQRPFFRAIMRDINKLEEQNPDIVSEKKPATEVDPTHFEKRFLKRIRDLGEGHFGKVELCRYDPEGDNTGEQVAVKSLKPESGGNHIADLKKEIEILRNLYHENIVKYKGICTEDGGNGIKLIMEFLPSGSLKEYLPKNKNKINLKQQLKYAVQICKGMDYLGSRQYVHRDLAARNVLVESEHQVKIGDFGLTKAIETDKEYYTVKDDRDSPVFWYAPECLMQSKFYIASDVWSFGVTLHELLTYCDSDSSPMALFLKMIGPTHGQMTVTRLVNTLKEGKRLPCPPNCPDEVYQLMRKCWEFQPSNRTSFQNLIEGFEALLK

| Compound | IC50 (JAK3) | IC50 (TYK2) | IC50 (JAK1) | IC50 (JAK2) |
| --- | --- | --- | --- | --- |
| O=C1NCCCCOCc2cc(ccc2OC2CC2)Nc2nccc(n2)-c2ccc1cc2[N+](=O)[O-] [Example 73, 4^4-cyclopropoxy-1^2-nitro-6-oxa-3,11-diaza-2(4,2)-pyrimidina-1(1,4),4(1,3)-dibenzenacyclododecaphan-12-one] | 0.101 to 1 µM | > 10 µM | 1 to 10 µM | 1 to 10 µM |
| Nc1cc2ccc1-c1ccnc(n1)Nc1cc(cc(N3CCSCC3)c1)COCCCCNC2=O [Example 77, 1^2-amino-4^5-thiomorpholin-6-oxa-3,11-diaza-2(4,2)-pyrimidina-1(1,4),4(1,3)-dibenzenacyclododecaphan-12-one] | 0.011 to 0.1 µM | 0.101 to 1 µM | 0.101 to 1 µM | 0.011 to 0.1 µM |
| Nc1cc2ccc1-c1ccnc(n1)Nc1ccc(Oc3ccccc3F)c(c1)COCCCCNC2=O [Example 119, 1^1-amino-4^4-(2-fluorophenoxy)-6-oxa-3,11-diaza-2(4,2)-pyrimidina-1(1,4),4(1,3)-dibenzenacyclo-dodecaphan-12-one] | 0.011 to 0.1 µM | > 10 µM | 1 to 10 µM | 1 to 10 µM |
| O=C1NCCCCOCc2cc(ccc2Br)Nc2nccc(n2)-c2ccc1cc2[N+](=O)[O-] [Example 89, 4^4-bromo-1^2-nitro-6-oxa-3,11-diaza-2(4,2)-pyrimidina-1(1,4),4(1,3)-di-benzenacyclododecaphan-12-one] | 1 to 10 µM | > 10 µM | 1 to 10 µM | 1 to 10 µM |
| O=C1NCCCCOCc2cc(ccc2N2CCCCC2)Nc2nccc(n2)-c2ccc1cc2[N+](=O)[O-] [Example 48, 1^2-nitro-4^4-(piperidin-1-)-6-oxa-3,11-diaza-2(4,2)-pyrimidina-1(1,4),4(1,3)-dibenzenacyclododecaphan-12-one] | 0.101 to 1 µM | 1 to 10 µM | 1 to 10 µM | 1 to 10 µM |
| O=C1Nc2ccc(cc2)OCc2cc(ccc2OCC2CC(F)(F)C2)Nc2nccc(n2)-c2ccc1cc2[N+](=O)[O-] [Example 209, 4^4-((3,3-difluorocyclobutyl)methoxy)-1^2-nitro-6-oxa-3,8-diaza-2(4,2)-pyrimidina-1,7(1,4),4(1,3)-tri-benzenacyclononaphane-9-one] | 1 to 10 µM | > 10 µM | > 10 µM | 1 to 10 µM |
| Nc1cc2ccc1-c1ccnc(n1)Nc1cc(F)c(F)c(c1)COCCCCNC2=O [Example 94, 1^2-amino-4^4,4^5-difluoro-6-oxa-3,11-diaza-2(4,2)-pyrimidina-1(1,4),4(1,3)-dibenzenacyclododecaphan-12-one] | 0.011 to 0.1 µM | > 10 µM | 1 to 10 µM | 1 to 10 µM |
| Nc1cc2ccc1-c1ccnc(n1)Nc1ccc(Oc3cnc4[nH]ccc4c3)c(c1)COCCCCNC2=O [Example 161, 4^4-((1H-pyrrolo[2,3-b]pyridin-5-yl)oxy)-1^2-amino-6-oxa-3,11-diaza-2(4,2)-pyrimidina-1(1,4),4(1,3)-di-benzenacyclododecaphan-12-one] | 1 to 10 µM | > 10 µM | 1 to 10 µM | 1 to 10 µM |
| CC(C)COc1ccc2cc1COc1ccc(cc1)NC(=O)c1ccc(c(N)c1)-c1ccnc(n1)N2 [Example 202, 1^2-amino-4^4-isobutoxy-6-oxa-3,8-di-aza-2(4,2)-pyrimidina-1,7(1,4),4(1,3)-tribenzenacyclononaphane-9-one] | 0.011 to 0.1 µM | > 10 µM | 1 to 10 µM | 1 to 10 µM |
| O=C1NCCCCOCc2cc(cc(N3CCOCC3)c2)Nc2nccc(n2)-c2ccc1cc2 [Example 3, 4^5-morpholin-6-oxa-3,11-diaza-2(4,2)-pyrimidina-1(1,4),4(1,3)-dibenze-nacyclododecaphan-12-one] | 0.101 to 1 µM | > 10 µM | 0.101 to 1 µM | 0.101 to 1 µM |
| COc1ccccc1COc1ccc2cc1COCCCCNC(=O)c1ccc(c(N)c1)-c1ccnc(n1)N2 [Example 156, 1^2-amino-4^4-((2-methoxybenzyl)oxy)-6-oxa-3,11-diaza-2(4,2)-pyri-midina-1(1,4),4(1,3)-dibenzena-cyclododecaphan-12-one] | 0.011 to 0.1 µM | > 10 µM | 1 to 10 µM | 0.101 to 1 µM |
| Nc1cc2ccc1-c1ccnc(n1)Nc1ccc(Oc3cccnc3)c(c1)COc1ccc(cc1)NC2=O [Example 205, 1^2-amino-4^4-(pyridin-3-oxy)-6-oxa-3,8-diaza-2(4,2)-pyrimidina-1,7(1,4),4(1,3)-tribenzenacyclononaphane-9-one] | 0.011 to 0.1 µM | > 10 µM | 1 to 10 µM | 1 to 10 µM |
| O=C1NCCCCOCc2cc(ccc2OCC(F)(F)F)Nc2nccc(n2)-c2ccc1cc2[N+](=O)[O-] [Example 108, 1^2-nitro-4^4-(2,2,2-trifluoroethoxy)-6-oxa-3,11-diaza-2(4,2)-pyrimidina-1(1,4),4(1,3)-dibenzenacyclo-dodecaphan-12-one] | 0.101 to 1 µM | > 10 µM | 1 to 10 µM | 1 to 10 µM |
| Nc1cc2ccc1-c1ccnc(n1)Nc1ccc(OC3CC3)c(c1)COc1ccc(cc1F)NC2=O [Example 199, 1^2-amino-4^4-cyclopropoxy-7^2-fluoro-6-oxa-3,8-diaza-2(4,2)-pyrimidina-1,7(1,4),4(1,3)-tribenzenacyclonona-phane-9-one] | 0.011 to 0.1 µM | 1 to 10 µM | 0.101 to 1 µM | 1 to 10 µM |
| Nc1cc2ccc1-c1ccnc(n1)Nc1ccc(OCC3CC(F)(F)C3)c(c1)COCCCCNC2=O [Example 127, 1^2-Amino-4^4-((3,3-difluorocyclo-butyl)methoxy)-6-oxa-3,11-diaza-2(4,2)-pyrimidina-1(1,4),4(1,3)-di-benzenacyclododecaphan-12-one] | < 0.01 µM | 1 to 10 µM | 1 to 10 µM | 0.101 to 1 µM |
| O=C1NCCCCOCc2cc(ccc2N2CCCCC2)Nc2nccc(n2)-c2ccc1cc2F [Example 29, 1^2-fluoro-4^4-(piperidin-1-)-6-oxa-3,11-diaza-2(4,2)-pyrimidina-1(1,4),4(1,3)-dibenzenacyclododecaphan-12-one] | 0.011 to 0.1 µM | 1 to 10 µM | 0.101 to 1 µM | 0.011 to 0.1 µM |
| CC1CCOCc2cc(ccc2OC2CCCOC2)Nc2nccc(n2)-c2ccc(cc2[N+](=O)[O-])C(=O)NC1 (stereo not shown) [Example 162, 9-methyl-1^2-nitro-4^4-((tetrahydro-2H-pyran-3-yl)oxy)-6-oxa-3,11-di-aza-2(4,2)-pyrimidina-1(1,4),4(1,3)-dibenzenacyclododecaphan-12-one] | 0.101 to 1 µM | 1 to 10 µM | 1 to 10 µM | 0.101 to 1 µM |
| O=C1NCCCCOCc2cc(ccc2OCC2CCOC2)Nc2nccc(n2)-c2ccc1cc2[N+](=O)[O-] (stereo not shown) [Example 124, 1^2-nitro-4^4-((tetrahydrofuran-3-yl)methoxy)-6-oxa-3,11-diaza-2(4,2)-pyrimidina-1(1,4),4(1,3)-dibenzena-cyclododecaphan-12-one] | 0.101 to 1 µM | > 10 µM | 1 to 10 µM | 1 to 10 µM |
| CC(C)COc1ccc2cc1COCCCCNC(=O)c1ccc(c([N+](=O)[O-])c1)-c1ccnc(n1)N2 [Example 115, 4^4-isobutoxy-1^2-nitro-6-oxa-3,11-diaza-2(4,2)-pyrimidina-1(1,4),4(1,3)-dibenzenacyclododecaphan-12-one] | 0.101 to 1 µM | > 10 µM | 1 to 10 µM | 1 to 10 µM |
